Holding throughout (experiment): TR-FRET Competition Assay
What all share (conditions): pH 7.5

The target in experiment [1] is T1, Tyrosine-protein kinase TXK (Homo sapiens, UniProt P42681).
T1 sequence (P42681 whole entry): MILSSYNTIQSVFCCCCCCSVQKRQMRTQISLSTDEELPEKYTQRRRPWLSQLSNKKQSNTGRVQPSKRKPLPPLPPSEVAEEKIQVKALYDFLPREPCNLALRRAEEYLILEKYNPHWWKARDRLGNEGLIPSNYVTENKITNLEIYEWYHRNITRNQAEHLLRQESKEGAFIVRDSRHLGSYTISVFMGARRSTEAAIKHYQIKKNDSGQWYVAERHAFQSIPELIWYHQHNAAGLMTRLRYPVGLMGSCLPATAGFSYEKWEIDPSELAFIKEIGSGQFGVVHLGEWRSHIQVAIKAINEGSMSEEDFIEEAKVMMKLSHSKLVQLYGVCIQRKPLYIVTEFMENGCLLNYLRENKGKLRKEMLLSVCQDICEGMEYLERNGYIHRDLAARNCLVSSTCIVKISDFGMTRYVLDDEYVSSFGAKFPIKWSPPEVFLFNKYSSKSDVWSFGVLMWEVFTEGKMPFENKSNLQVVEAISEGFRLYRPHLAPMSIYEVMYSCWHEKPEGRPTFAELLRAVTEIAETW
How it is done: (§1) Assay buffer was 20 mM HEPES, pH 7.5, 10 mM MgCl2, 0.01% BSA, 1 mM DTT, 0.0005% Tween 20, and 2% DMSO. […] The assays were read using an EnVi

In experiment [2] the target is T2, Tyrosine-protein kinase Tec (Homo sapiens, UniProt P42680).
T2 sequence (P42680 whole entry): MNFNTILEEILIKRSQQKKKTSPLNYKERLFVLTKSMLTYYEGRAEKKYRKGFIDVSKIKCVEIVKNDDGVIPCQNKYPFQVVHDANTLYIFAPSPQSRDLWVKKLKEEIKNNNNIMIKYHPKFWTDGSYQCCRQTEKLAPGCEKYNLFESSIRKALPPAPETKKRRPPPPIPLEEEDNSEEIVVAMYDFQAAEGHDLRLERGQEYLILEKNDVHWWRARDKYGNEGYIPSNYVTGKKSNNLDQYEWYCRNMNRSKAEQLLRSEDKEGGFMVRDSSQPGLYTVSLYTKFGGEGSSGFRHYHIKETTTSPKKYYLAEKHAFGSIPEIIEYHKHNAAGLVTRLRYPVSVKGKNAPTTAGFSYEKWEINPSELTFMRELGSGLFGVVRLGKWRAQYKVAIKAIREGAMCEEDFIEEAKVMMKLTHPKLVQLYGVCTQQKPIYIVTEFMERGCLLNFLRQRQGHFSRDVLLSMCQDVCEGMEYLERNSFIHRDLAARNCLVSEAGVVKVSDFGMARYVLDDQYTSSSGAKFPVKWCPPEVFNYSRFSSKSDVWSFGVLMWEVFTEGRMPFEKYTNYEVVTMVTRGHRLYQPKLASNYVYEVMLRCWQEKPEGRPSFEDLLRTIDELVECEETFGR
As for the experimental part: as §1

In experiment [3] the target is Tyrosine-protein kinase Blk (Homo sapiens, UniProt P51451). As for the experimental part:
as §1

Chain of Tyrosine-protein kinase Blk (P51451 whole entry): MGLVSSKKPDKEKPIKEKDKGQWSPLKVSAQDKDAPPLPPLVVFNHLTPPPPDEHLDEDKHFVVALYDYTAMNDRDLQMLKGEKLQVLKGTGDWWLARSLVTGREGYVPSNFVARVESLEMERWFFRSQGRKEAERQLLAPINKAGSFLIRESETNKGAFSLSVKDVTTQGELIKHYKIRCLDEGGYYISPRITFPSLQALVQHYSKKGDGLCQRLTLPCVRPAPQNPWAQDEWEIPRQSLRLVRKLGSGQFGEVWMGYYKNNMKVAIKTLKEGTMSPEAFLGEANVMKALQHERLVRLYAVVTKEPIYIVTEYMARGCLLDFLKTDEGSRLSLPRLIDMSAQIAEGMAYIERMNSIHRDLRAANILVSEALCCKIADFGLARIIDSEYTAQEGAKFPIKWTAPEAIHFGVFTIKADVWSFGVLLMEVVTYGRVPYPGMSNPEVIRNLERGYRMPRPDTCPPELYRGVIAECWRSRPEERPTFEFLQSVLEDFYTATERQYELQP

As to `C=CC(=O)N1C[C@H](Nc2ncnc3[nH]ccc23)CC[C@@H]1C` [PF-06651600], the Ki (usually the dissociation constant of the complex between target and ligand, obtained from inhibition or displacement) came to 0.131 nM in experiment [1], 0.679 nM in experiment [2] and 32.4 nM in experiment [3].

(Values after BindingDB's records for doi:10.1021/acschembio.6b00677 (Pfizer, 2016).)
